Consider 10 substances from patent US8084399B2, “Process for screening of a binding amphiphilic peptides specific for hairpin RNA” (priority 2009, dated 2011).

Where no end group is shown, it is not given here. [ ]: non-standard residue; d: D form. Orn = NCCC[C@H](N)C(=O)O; Dap = NC[C@H](N)C(=O)O

One data set concerns the target 16S ribosomal RNA A-site. The data set is described as follows: Fluorescence anisotropy competition with Rev-N-rhodamine probe, binding to 16S A-site. The following applies: 20° C., pH 7.4, read-out: Dissociation constant, 16S A-site. Put shortly: (§1)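 Competitive fluorescence anisotropy at 20° C in 20 mM HEPES pH 7.4, 140 mM NaCl, 5 mM KCl, 1 mM MgCl2. Heat-refolded target RNA bound to 10 nM Rev-N-rhodamine probe; peptide titrated until anisotropy returned to baseline, and Kd fitted from a competition binding equation.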

Data set [1] in a line: Circular dichroism (CD), percentage of alpha-helix. It counts as physicochemical. The conditions noted are these: CD at 20° C., condition not given; for Alpha-helical rate (%), second value of pair: value after the slash; for Alpha-helical rate (%), first value of pair: value before the slash. In a few lines:
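Spectra recorded at 20 °C, 190–250 nm, three averaged scans, background-corrected and converted to mean residue ellipticity. Helix fraction derived from [θ] at 222 nm relative to full-helix and random-coil reference values, which depend on residue number and temperature.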
(In general: CD spectra are sensitive to the conformation of chiral molecules.)

For a further data set, the target named is TAR hairpin RNA. Description: Fluorescence anisotropy competition with Rev-N-rhodamine probe, binding to TAR hairpin RNA. Also on record: species or system HIV. The conditions noted are these: fluorescence anisotropy, 20° C., pH 7.4; read-out: Dissociation constant, TAR. In a few lines: as §1
In general terms: In fluorescence polarisation assays a small probe gives low polarisation when free and higher when bound to something large.

Another data set deals with IRES domain IV hairpin. Description: Fluorescence anisotropy competition with Rev-N-rhodamine probe, binding to IRES hairpin. Also on record: species or system HCV. The conditions noted are these: for differentiation coefficient (IRES): (mean Kd to other hairpin RNA)/(Kd to one hairpin RNA); for Kd: fluorescence anisotropy, 20° C., pH 7.4, read-out: Dissociation constant, IRES. In a few lines: as §1

The target of a further data set is RRE hairpin RNA. The data set is described as follows: Fluorescence anisotropy competition with Rev-N-rhodamine probe, binding to RRE hairpin RNA. On the set-up: species or system HIV. The following applies: 20° C., pH 7.4, read-out: Dissociation constant, RRE. In a few lines:
as §1

As for “LKKLLKLLOrnKLLDapWAG (LKKLLKLL[Orn]KLL[Dap]WAG-NH2; N-terminus assumed; SMILES CC(C)C[C@H](NC(=O)[C@H](CC(C)C)NC(=O)[C@H](CCCCN)NC(=O)[C@H](CCCN)NC(=O)[C@H](CC(C)C)NC(=O)[C@H](CC(C)C)NC(=O)[C@H](CCCCN)NC(=O)[C@H](CC(C)C)NC(=O)[C@H](CC(C)C)NC(=O)[C@H](CCCCN)NC(=O)[C@H](CCCCN)NC(=O)[C@@H](N)CC(C)C)C(=O)N[C@@H](CN)C(=O)N[C@@H](Cc1c[nH]c2ccccc12)C(=O)N[C@@H](C)C(=O)NCC(N)=O) [peptide 3h, third generation peptide, both faces modified]”, the Kd at 16S ribosomal RNA A-site came to 19 nM; on TAR hairpin RNA, 15 nM; on IRES domain IV hairpin it was 13 nM; on RRE hairpin RNA, 28 nM. Also, in data set [1], the “Alpha-helical rate (%), second value of pair” value was determined as 56%. Further, the “Alpha-helical rate (%), first value of pair” value in data set [1] was 12%. Also, the “differentiation coefficient (IRES)” value in the data set with IRES domain IV hairpin turned out to be 1.6.

Take “LKKLLKLLOrnKLLKLAG (LKKLLKLL[Orn]KLLKLAG-NH2; N-terminus assumed; SMILES CC(C)C[C@H](NC(=O)[C@H](CCCCN)NC(=O)[C@H](CC(C)C)NC(=O)[C@H](CC(C)C)NC(=O)[C@H](CCCCN)NC(=O)[C@H](CCCN)NC(=O)[C@H](CC(C)C)NC(=O)[C@H](CC(C)C)NC(=O)[C@H](CCCCN)NC(=O)[C@H](CC(C)C)NC(=O)[C@H](CC(C)C)NC(=O)[C@H](CCCCN)NC(=O)[C@H](CCCCN)NC(=O)[C@@H](N)CC(C)C)C(=O)N[C@@H](C)C(=O)NCC(N)=O) [2d, second generation peptide, hydrophilic face modified]”: the Kd at 16S ribosomal RNA A-site is 18 nM; on TAR hairpin RNA, 9.8 nM; at IRES domain IV hairpin, 1.3 nM; at RRE hairpin RNA, 7.6 nM. Further, in data set [1], the “Alpha-helical rate (%), second value of pair” value turned out to be 57%. Further, the “Alpha-helical rate (%), first value of pair” value in data set [1] came to 28%. Besides, the “differentiation coefficient (IRES)” value in the data set on IRES domain IV hairpin came to 8.7.

As for “LKKLLKLLOrnKLLKWAG (LKKLLKLL[Orn]KLLKWAG-NH2; N-terminus assumed; SMILES CC(C)C[C@H](NC(=O)[C@H](CC(C)C)NC(=O)[C@H](CCCCN)NC(=O)[C@H](CCCN)NC(=O)[C@H](CC(C)C)NC(=O)[C@H](CC(C)C)NC(=O)[C@H](CCCCN)NC(=O)[C@H](CC(C)C)NC(=O)[C@H](CC(C)C)NC(=O)[C@H](CCCCN)NC(=O)[C@H](CCCCN)NC(=O)[C@@H](N)CC(C)C)C(=O)N[C@@H](CCCCN)C(=O)N[C@@H](Cc1c[nH]c2ccccc12)C(=O)N[C@@H](C)C(=O)NCC(N)=O) [3f, third generation peptide, both faces modified]”, the Kd at 16S ribosomal RNA A-site worked out at 10 nM; on TAR hairpin RNA it was 4.7 nM; at IRES domain IV hairpin it was 6.1 nM; on RRE hairpin RNA it was 3.6 nM. The “Alpha-helical rate (%), second value of pair” value in data set [1] amounted to 58%. In addition, the “Alpha-helical rate (%), first value of pair” value in data set [1] came to 36%. Further, the “differentiation coefficient (IRES)” value in the data set with IRES domain IV hairpin is 1.0.

Take “LKKLLKLWKKLLKLAG [2r, tryptophan scanned second generation peptide]”: the Kd amounted to 65 nM at 16S ribosomal RNA A-site, 82 nM on TAR hairpin RNA, 92 nM on IRES domain IV hairpin and 37 nM on RRE hairpin RNA. Besides, the “Alpha-helical rate (%), second value of pair” value in data set [1] was determined as 59%. Further, the “Alpha-helical rate (%), first value of pair” value in data set [1] is 14%. Besides, the “differentiation coefficient (IRES)” value with IRES domain IV hairpin was found to be 0.75.

In the case of “LKKLLKWLKKLLDapLAG (LKKLLKWLKKLL[Dap]LAG-NH2; N-terminus assumed; SMILES CC(C)C[C@H](NC(=O)[C@H](CN)NC(=O)[C@H](CC(C)C)NC(=O)[C@H](CC(C)C)NC(=O)[C@H](CCCCN)NC(=O)[C@H](CCCCN)NC(=O)[C@H](CC(C)C)NC(=O)[C@H](Cc1c[nH]c2ccccc12)NC(=O)[C@H](CCCCN)NC(=O)[C@H](CC(C)C)NC(=O)[C@H](CC(C)C)NC(=O)[C@H](CCCCN)NC(=O)[C@H](CCCCN)NC(=O)[C@@H](N)CC(C)C)C(=O)N[C@@H](C)C(=O)NCC(N)=O) [3c, third generation peptide, both faces modified]”, the Kd turned out to be 21 nM at 16S ribosomal RNA A-site, 8.3 nM at TAR hairpin RNA, 0.75 nM at IRES domain IV hairpin and 9.7 nM at RRE hairpin RNA. Moreover, the “Alpha-helical rate (%), second value of pair” value in data set [1] came out at 36%. Besides, the “Alpha-helical rate (%), first value of pair” value in data set [1] came out at 29%. In addition, the “differentiation coefficient (IRES)” value with IRES domain IV hairpin is on record as 17.

Regarding “LKKLLKWLKKLLKLAG [2q, tryptophan scanned second generation peptide]”, the Kd on 16S ribosomal RNA A-site worked out at 17 nM; on TAR hairpin RNA it was 21 nM; on IRES domain IV hairpin, 0.87 nM; at RRE hairpin RNA, 1.2 nM. For the same substance, the “Alpha-helical rate (%), second value of pair” value in data set [1] was determined as 71%. In addition, in data set [1], the “Alpha-helical rate (%), first value of pair” value is on record as 19%. For the same substance, the “differentiation coefficient (IRES)” value with IRES domain IV hairpin amounted to 15. In the data set with IRES domain IV hairpin (compared with the original peptide), the “binding strength to IRES, in words” value was “significantly increased”.

As for “LKKLLKWLOrnKLLKLAG (LKKLLKWL[Orn]KLLKLAG-NH2; N-terminus assumed; SMILES CC(C)C[C@H](NC(=O)[C@H](CCCCN)NC(=O)[C@H](CC(C)C)NC(=O)[C@H](CC(C)C)NC(=O)[C@H](CCCCN)NC(=O)[C@H](CCCN)NC(=O)[C@H](CC(C)C)NC(=O)[C@H](Cc1c[nH]c2ccccc12)NC(=O)[C@H](CCCCN)NC(=O)[C@H](CC(C)C)NC(=O)[C@H](CC(C)C)NC(=O)[C@H](CCCCN)NC(=O)[C@H](CCCCN)NC(=O)[C@@H](N)CC(C)C)C(=O)N[C@@H](C)C(=O)NCC(N)=O) [3b, third generation peptide, both faces modified]”, the Kd on 16S ribosomal RNA A-site was 24 nM; at TAR hairpin RNA, 22 nM; on IRES domain IV hairpin it was 5.1 nM; at RRE hairpin RNA, 18 nM. Also, the “Alpha-helical rate (%), second value of pair” value in data set [1] came to 52%. For the same substance, in data set [1], the “Alpha-helical rate (%), first value of pair” value was 34%. In addition, in the data set with IRES domain IV hairpin, the “differentiation coefficient (IRES)” value is 4.2.

As for “LKKLLOrnLLKKLLKLAG (LKKLL[Orn]LLKKLLKLAG-NH2; N-terminus assumed; SMILES CC(C)C[C@H](NC(=O)[C@H](CCCCN)NC(=O)[C@H](CC(C)C)NC(=O)[C@H](CC(C)C)NC(=O)[C@H](CCCCN)NC(=O)[C@H](CCCCN)NC(=O)[C@H](CC(C)C)NC(=O)[C@H](CC(C)C)NC(=O)[C@H](CCCN)NC(=O)[C@H](CC(C)C)NC(=O)[C@H](CC(C)C)NC(=O)[C@H](CCCCN)NC(=O)[C@H](CCCCN)NC(=O)[C@@H](N)CC(C)C)C(=O)N[C@@H](C)C(=O)NCC(N)=O) [2a, second generation peptide, hydrophilic face modified]”, the Kd stood at 15 nM on 16S ribosomal RNA A-site, 14 nM on TAR hairpin RNA, 6.1 nM on IRES domain IV hairpin and 17 nM at RRE hairpin RNA. Moreover, the “Alpha-helical rate (%), second value of pair” value in data set [1] amounted to 82%. Besides, the “Alpha-helical rate (%), first value of pair” value in data set [1] is reported as 13%. Further, in the data set with IRES domain IV hairpin, the “differentiation coefficient (IRES)” value came to 2.5.

Turning to “LKKLWKLLKKLLKLAG [2p, tryptophan scanned second generation peptide]”, the Kd is 12 nM at 16S ribosomal RNA A-site, 9.8 nM at TAR hairpin RNA, 2.8 nM at IRES domain IV hairpin and 6.2 nM on RRE hairpin RNA. Further, the “Alpha-helical rate (%), second value of pair” value in data set [1] is 56%. Further, the “Alpha-helical rate (%), first value of pair” value in data set [1] was found to be 20%. Besides, the “differentiation coefficient (IRES)” value in the data set on IRES domain IV hairpin was 3.3.

For the substance “LKKWLKLLKKLLKLAG [2o, tryptophan scanned second generation peptide]”, the Kd turned out to be 15 nM on 16S ribosomal RNA A-site, 34 nM at TAR hairpin RNA, 3.3 nM on IRES domain IV hairpin and 5.9 nM at RRE hairpin RNA. In data set [1], the “Alpha-helical rate (%), second value of pair” value came to 52%. For the same substance, the “Alpha-helical rate (%), first value of pair” value in data set [1] is recorded as 4.6%. Also, the “differentiation coefficient (IRES)” value with IRES domain IV hairpin is given as 5.6.
